BindingDB's records for patent US20250074895 (Blueprint Medicines, 2025)

How the values were obtained:
[1] = target: Cyclin-dependent kinase 2/G1/S-specific cyclin-E1 (Homo sapiens, UniProt P24941); assay: Biochemical CDK Inhibition Assay
Procedure: (§1) nhibitory effects of the compounds of the disclosure were measured in biochemical assays that measure the enzymatic phosphorylation activity of CDK enzyme in complex of Cyclin proteins phosphorylates 7.5 micromolar fluorescently labelled peptide substrate, 5-FAM-QSPKKG-CONH2, (FL-Peptide 18, Perkin Elmer, 760362) in the presence of adenosine-5′-triphosphate (ATP) and varying concentrations of the test compound in 100 mM 2-[4-(2-hydroxyethyl)piperazin-1-yl]ethanesulfonic acid (HEPES), pH 7.5, 10 mM MgCl2, 0.015% Brij-35, 1 mM dithiothreitol (DTT), 1.0% dimethylsulfoxide (DMSO). Assays were performed at 1.0 mM ATP or at ATP Km of the CDK enzymes in complex with Cyclin proteins. Reactions proceeded until between 10% to 20% total peptides were phosphorylated at room temperature (25° C.) and were terminated with 35 mM 2,2′,2″,2′″-(ethane-1,2-diyldinitrilo)tetraacetic acid (EDTA). Product was detected using the Caliper mobility shift detection method where the phosphorylated peptide (product) and substrate were electrophoretically separated and measured. Percent activity was plotted against log concentration of compound and points to generate an apparent IC50. The following CDK enzymes in complex with different cyclin proteins were used in these assays:CDK1/Cyclin B1, GST-tag (BPS, 40454), 1.5 nM used in the assayCDK2/Cyclin E (Eurofins, 14-475), 1.25 nM used in the assays

[2] = target: Cyclin-dependent kinase/G2/mitotic-specific cyclin- 1 (Homo sapiens, UniProt P06493); assay: Biochemical CDK Inhibition Assay
Sequence of Cyclin-dependent kinase/G2/mitotic-specific cyclin- 1 (P06493 whole entry): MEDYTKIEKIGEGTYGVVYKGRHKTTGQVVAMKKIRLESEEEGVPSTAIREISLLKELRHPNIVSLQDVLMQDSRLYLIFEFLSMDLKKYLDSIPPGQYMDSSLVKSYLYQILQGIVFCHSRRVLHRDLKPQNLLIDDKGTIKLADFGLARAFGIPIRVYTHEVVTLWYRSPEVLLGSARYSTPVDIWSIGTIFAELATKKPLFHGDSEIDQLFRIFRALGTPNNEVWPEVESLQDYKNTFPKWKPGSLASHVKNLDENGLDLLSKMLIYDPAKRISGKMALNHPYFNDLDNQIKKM
Sequence of Cyclin-dependent kinase/G2/mitotic-specific cyclin- 1 (P14635 whole entry, further chain): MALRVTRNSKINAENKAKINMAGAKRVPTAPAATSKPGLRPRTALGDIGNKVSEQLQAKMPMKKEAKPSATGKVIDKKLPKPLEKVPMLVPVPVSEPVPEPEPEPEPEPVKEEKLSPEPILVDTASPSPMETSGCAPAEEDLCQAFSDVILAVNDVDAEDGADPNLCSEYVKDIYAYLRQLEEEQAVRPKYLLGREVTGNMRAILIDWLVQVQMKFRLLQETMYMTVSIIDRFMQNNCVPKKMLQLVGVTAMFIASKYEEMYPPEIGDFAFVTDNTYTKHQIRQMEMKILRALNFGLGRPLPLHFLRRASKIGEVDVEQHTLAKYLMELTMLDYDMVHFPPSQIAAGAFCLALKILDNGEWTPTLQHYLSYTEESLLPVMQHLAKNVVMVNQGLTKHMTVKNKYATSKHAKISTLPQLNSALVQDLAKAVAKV
Procedure: as §1

IC50 [1] [µM] | IC50 [2] [µM] | SMILES
< 0.01 | < 0.1 | COc1nccc(Nc2cc([C@@H]3CC[C@H](OC(=O)NC4(C)CC4)C3)[nH]n2)n1 [US20250074895, Compound 58]
< 0.01 | < 0.1 | CC1(C)CCN1C(=O)O[C@@H]1CC[C@H](c2cc(Nc3cnc(CO)cn3)n[nH]2)C1 [US20250074895, Compound 49]
< 0.01 | 0.3 | CC1(NC(=O)O[C@@H]2CC[C@H](c3cc(Nc4cnc(C(F)(F)F)cn4)n[nH]3)C2)CC1 [US20250074895, Compound 30]
< 0.01 | < 0.1 | CC1(NC(=O)O[C@H]2CC[C@@H](c3cc(Nc4cnccn4)n[nH]3)C2)CC1 [US20250074895, Compound 57]
< 0.01 | 0.3 | CC1(NC(=O)O[C@@H]2CC[C@H](c3cc(Nc4cnccn4)n[nH]3)C2)CC1 [US20250074895, Compound 26]
< 0.01 | 0.3 | C[C@H](O)c1cnc(Nc2cc([C@H]3CC[C@@H](OC(=O)NC4(C)CC4)C3)[nH]n2)cn1 [US20250074895, Compound 21]
< 0.01 | < 0.1 | C[C@@H](O)c1cnc(Nc2cc([C@H]3CC[C@@H](OC(=O)N4CCC4(C)C)C3)[nH]n2)cn1 [US20250074895, Compound 51]
< 0.01 | < 0.1 | C[C@H](O)c1cnc(Nc2cc([C@H]3CC[C@@H](OC(=O)N4CCC4(C)C)C3)[nH]n2)cn1 [US20250074895, Compound 52]
< 0.01 | < 0.1 | CC1(NC(=O)O[C@@H]2CC[C@H](c3cc(Nc4cncc(C#N)n4)n[nH]3)C2)CC1 [US20250074895, Compound 11]
< 0.01 | 0.3 | CC1(NC(=O)O[C@@H]2CC[C@H](c3cc(Nc4cnc(C#N)cn4)n[nH]3)C2)CC1 [US20250074895, Compound 1]
< 0.01 | > 0.5 | CC1(NC(=O)O[C@@H]2CC[C@H](c3cc(Nc4cnc(Cl)cn4)n[nH]3)C2)CC1 [US20250074895, Compound 41]
< 0.01 | 0.3 | CC1(NC(=O)O[C@@H]2CC[C@H](c3cc(Nc4ccc(C#N)cn4)n[nH]3)C2)CC1 [US20250074895, Compound 12]
< 0.01 | < 0.1 | CC1(NC(=O)O[C@@H]2CC[C@H](c3cc(Nc4cnc(C(F)F)cn4)n[nH]3)C2)CC1 [US20250074895, Compound 36]
0.015 | > 0.5 | CC1(NC(=O)O[C@@H]2CC[C@H](c3cc(Nc4cccnn4)n[nH]3)C2)CC1 [US20250074895, Compound 38]
0.015 | > 0.5 | CC1(NC(=O)O[C@@H]2CC[C@H](c3cc(Nc4ccccn4)n[nH]3)C2)CC1 [US20250074895, Compound 13]
0.015 | > 0.5 | Cc1cncnc1Nc1cc([C@H]2CC[C@@H](OC(=O)NC3(C)CC3)C2)[nH]n1 [US20250074895, Compound 40]
< 0.01 | 0.3 | Cc1cnc(C#N)nc1Nc1cc([C@H]2CC[C@@H](OC(=O)NC3(C)CC3)C2)[nH]n1 [US20250074895, Compound 19]

IC50 [1] [µM] | IC50 [2] [µM] | SMILES
< 0.01 | 0.3 | CC1(NC(=O)O[C@@H]2CC[C@H](c3cc(Nc4ccnc(CO)n4)n[nH]3)C2)CC1 [US20250074895, Compound 46]
< 0.01 | < 0.1 | CC1(NC(=O)O[C@@H]2CC[C@H](c3cc(Nc4cncc(C5CC5)n4)n[nH]3)C2)CC1 [US20250074895, Compound 29]
< 0.01 | > 0.5 | Cc1nc(C#N)cnc1Nc1cc([C@H]2CC[C@@H](OC(=O)NC3(C)CC3)C2)[nH]n1 [US20250074895, Compound 4]
< 0.01 | 0.3 | CC1(NC(=O)O[C@@H]2CC[C@H](c3cc(Nc4cnc(C(C)(C)O)cn4)n[nH]3)C2)CC1 [US20250074895, Compound 17]
< 0.01 | 0.3 | COc1nccc(Nc2cc([C@H]3CC[C@@H](OC(=O)NC4(C)CC4)C3)[nH]n2)n1 [US20250074895, Compound 25]
< 0.01 | < 0.1 | CC1(NC(=O)O[C@@H]2CC[C@H](c3cc(Nc4cnc(CO)cn4)n[nH]3)C2)CC1 [US20250074895, Compound 55]
< 0.01 | 0.3 | C[C@@H](O)c1cnc(Nc2cc([C@H]3CC[C@@H](OC(=O)NC4(C)CC4)C3)[nH]n2)cn1 [US20250074895, Compound 22]
< 0.01 | < 0.1 | Cc1cc(C#N)cc(Nc2cc([C@H]3CC[C@@H](OC(=O)NC4(C)CC4)C3)[nH]n2)n1 [US20250074895, Compound 15]
< 0.01 | 0.3 | COc1cnc(Nc2cc([C@H]3CC[C@@H](OC(=O)NC4(C)CC4)C3)[nH]n2)cn1 [US20250074895, Compound 28]
< 0.01 | > 0.5 | Cc1c(C#N)ccnc1Nc1cc([C@H]2CC[C@@H](OC(=O)NC3(C)CC3)C2)[nH]n1 [US20250074895, Compound 14]
< 0.01 | 0.3 | CNc1nc(Nc2cc([C@H]3CC[C@@H](OC(=O)NC4(C)CC4)C3)[nH]n2)cnc1C#N [US20250074895, Compound 43]
< 0.01 | < 0.1 | Cc1nc(Nc2cc([C@H]3CC[C@@H](OC(=O)NC4(C)CC4)C3)[nH]n2)cnc1C#N [US20250074895, Compound 9]
< 0.01 | < 0.1 | CC1(NC(=O)O[C@@H]2CC[C@H](c3cc(Nc4ccnc(C(F)F)n4)n[nH]3)C2)CC1 [US20250074895, Compound 33]
< 0.01 | < 0.1 | Cc1cncc(Nc2cc([C@H]3CC[C@@H](OC(=O)NC4(C)CC4)C3)[nH]n2)n1 [US20250074895, Compound 7]
< 0.01 | 0.3 | CNc1nccc(Nc2cc([C@H]3CC[C@@H](OC(=O)NC4(C)CC4)C3)[nH]n2)n1 [US20250074895, Compound 48]
< 0.01 | > 0.5 | CN(C)c1cnc(Nc2cc([C@H]3CC[C@@H](OC(=O)NC4(C)CC4)C3)[nH]n2)cn1 [US20250074895, Compound 32]
